Paper PMC6356585 (Viruses, 2018)
Where a name gives a salt, the structure may show the parent alone. Read-outs that look alike come from different tables or passages of the source. Residues, ends and D or L forms follow the SMILES beside them. *: point of attachment. Cbz = O=C(OCc1ccccc1)*

Key:
[1] = test system: ZIKV SPH; assay: Autophagy compound library screen, ZIKV SPH titer (TCID50) in C6/36 cells; format: cell-based, Zika virus; settings: 10 µM compound, MOI 0.1, 96 h, TCID50, ± SEM, three independent trials; for activity at 10 µM: Zika virus, C6/36, read-out: ZIKV SPH Relative Titer in C6/36 Cells
[2] = test system: Vero cells; assay: Cell viability (CellTiter-Glo) of Vero cells; format: cell-based
[3] = test system: C6/36 cells; format: cell-based, Ae. albopictus
[4] = 10 µM compound, 40 h, CellTiter-Glo, ± SEM, three independent trials
[5] = 10 µM compound, 96 h, CellTiter-Glo, ± SEM, three independent trials

Structure (SMILES)	activity at 10 µM [1]	C6/36 Viability [3, 5]	Vero Viability ([2]; 10 µM)	C6/36 Viability ([3]; 10 µM)	other results
C[C@H]1O[C@@H](n2cnc3c(N)ncnc32)C[C@@H]1O [2′,5′-Dideoxyadenosine]	317 ± 162%	118 ± 15% of untreated control	–	–	Vero Viability [2, 4]: 95.0 ± 1.5% of untreated control
O=C(Nc1ccc([N+](=O)[O-])cc1Cl)c1cc(Cl)ccc1O [Niclosamide]	0.1%	2 ± 0.3% of untreated control	29.7 ± 3.8% of untreated control	–	–
CC/C(=C(\c1ccccc1)c1ccc(OCCN(C)C)cc1)c1ccccc1 [Tamoxifen citrate]	8.2 ± 7.3%	32 ± 11.9% of untreated control	60.7 ± 18.4% of untreated control	–	–
CCN(CC)CCNC(=O)c1c(C)[nH]c(/C=C2\C(=O)Nc3ccc(Cl)cc32)c1C [SU11652]	0%	–	1.0 ± 0% of untreated control	1 ± 0% of untreated control	–
NCCCCNCCCN [Spermidine]	90.2 ± 57.4%	–	78.0 ± 17% of untreated control	70 ± 3% of untreated control	–
CC(C)C[C@@H](C=O)NC(=O)[C@H](CC(C)C)NC(=O)[C@H](CC(C)C)NC(=O)OCc1ccccc1 [MG132] (Cbz-Leu-Leu-Leu-aldehyde)	9.5 ± 7.1%	31 ± 5.7% of untreated control	10.7 ± 2.8% of untreated control	–	–
COC1=C2C[C@@H](C)C[C@H](OC)[C@H](O)[C@@H](C)/C=C(\C)[C@H](OC(N)=O)[C@@H](OC)/C=C\C=C(/C)C(=O)NC(=CC1=O)C2=O [Geldanamycin]	25.8 ± 14.5%	45 ± 5.8% of untreated control	61.3 ± 5.7% of untreated control	–	–
O=CC[C@@H](O)[C@H](O)[C@H](O)CO [2-Deoxyglucose]	109 ± 61.2%	73 ± 1% of untreated control	98.7 ± 0.9% of untreated control	–	–
C/C=C(/C)C(=O)O[C@H]1C(C)=C2[C@H]([C@@H]1OC(=O)CCCCCCC)[C@@](C)(OC(C)=O)C[C@H](OC(=O)CCC)[C@@]1(O)[C@H]2OC(=O)[C@@]1(C)O [Thapsigargin]	0%	–	38.0 ± 10.5% of untreated control	23 ± 3.9% of untreated control	–
CCN(CC)CCCC(C)Nc1ccnc2cc(Cl)ccc12 (stereo not shown) [Chloroquine]	126 ± 44.8%	81 ± 17.1% of untreated control	–	–	Vero Viability [2, 4]: 89.7 ± 4.4% of untreated control
Cc1ccc(NC(=O)c2ccc(CN3CCN(C)CC3)cc2)cc1Nc1nccc(-c2cccnc2)n1 [Imatinib mesylate]	5.3 ± 2.2%	19 ± 5.4% of untreated control	–	–	–
C=C[C@@]1(C)CC(=O)[C@]2(O)[C@@]3(C)[C@@H](O)CCC(C)(C)[C@@H]3[C@H](O)[C@H](OC(C)=O)[C@@]2(C)O1 [Forskolin]	302 ± 18.3%	–	74.7 ± 3.7% of untreated control	94 ± 12% of untreated control	–
C[C@H]1CCC/C=C/[C@@H]2C[C@H](O)C[C@H]2[C@H](O)/C=C/C(=O)O1 [Brefeldin A]	124 ± 25%	–	–	–	ZIKV SPH Relative Titer in C6/36 Cells [1]: did not alter viral titers; Vero Viability ([2]; 10 µM compound, 40 h, CellTiter-Glo, ± SEM, three independent trials, 10 µM): 17.0 ± 2.1% of untreated control; Vero Viability ([2]; 10 µM compound, 40 h, CellTiter-Glo, ± SEM, three independent trials, listed as brefeldin A, 10 µM): toxic; C6/36 Viability ([3]; 10 µM compound, 96 h, CellTiter-Glo, ± SEM, three independent trials, 10 µM): 91 ± 8.4% of untreated control; C6/36 Viability ([3]; 10 µM compound, 96 h, CellTiter-Glo, ± SEM, three independent trials, listed as brefeldin A, 10 µM): did not alter viral titers or cell viability
O=C(/C=C/c1cccnc1)NCCCCC1CCN(C(=O)c2ccccc2)CC1 [FK-866]	92.7 ± 32.4%	–	32.7 ± 2.7% of untreated control	48 ± 5.5% of untreated control	–
CC(=O)c1c(O)c(C)c(O)c(Cc2c(O)c3c(c(C(=O)/C=C/c4ccccc4)c2O)OC(C)(C)C=C3)c1O [Rottlerin]	30.3 ± 16.9%	40 ± 8.4% of untreated control	–	–	Vero Viability [2, 4]: 80.7 ± 8.5% of untreated control
Cn1c(=O)c2c(ncn2C)n(C)c1=O [Caffeine]	138 ± 37.7%	83 ± 4.6% of untreated control	–	–	Vero Viability [2, 4]: 104.7 ± 8.6% of untreated control
CN(C)C(=N)N=C(N)N [Metformin·HCl]	–	64 ± 10.3% of untreated control	92.3 ± 4.2% of untreated control	–	–
COCCOC(=O)C1=C(C)NC(C)=C(C(=O)OC(C)C)C1c1cccc([N+](=O)[O-])c1 (stereo not shown) [Nimodipine]	26.9 ± 13.6%	41 ± 8.4% of untreated control	92.0 ± 1.5% of untreated control	–	–
O=c1[nH]c2ccccc2n1C1CCN(CCCC(c2ccc(F)cc2)c2ccc(F)cc2)CC1 [Pimozide]	109 ± 22%	49 ± 3.6% of untreated control	90.0 ± 5.7% of untreated control	–	–
CCOC(=O)C1=C(C)NC(C)=C(C(=O)OC)C1c1cccc([N+](=O)[O-])c1 (stereo not shown) [Nitrendipine]	220 ± 44.4%	62 ± 10.5% of untreated control	–	–	Vero Viability [2, 4]: 88.7 ± 1.9% of untreated control

Structure (SMILES)	activity at 10 µM [1]	C6/36 Viability [3, 5]	Vero Viability ([2]; 10 µM)	C6/36 Viability ([3]; 10 µM)	other results
c1ccc2c(-c3ccncc3)c[nH]c2c1 [Rockout]	96.2 ± 44.2%	–	87.7 ± 3.8% of untreated control	76 ± 5.2% of untreated control	–
COc1ccc(C2CNC(=O)C2)cc1OC1CCCC1 (stereo not shown) [Rolipram]	215 ± 74.8%	–	91.0 ± 3.2% of untreated control	127 ± 12.1% of untreated control	–
C[C@H]1CC[C@@]2(OC1)O[C@H]1C[C@H]3[C@@H]4CC[C@@H]5C[C@@H](O[C@@H]6O[C@H](CO)[C@H](O)[C@H](O)[C@H]6O[C@@H]6O[C@H](CO)[C@@H](O)[C@H](O)[C@H]6O)CC[C@]5(C)[C@H]4CC[C@]3(C)[C@H]1[C@@H]2C [Timosaponin A-III]	13 ± 5.2%	67 ± 3.6% of untreated control	38.7 ± 11.9% of untreated control	–	–
Nc1cc(N2CCCCC2)nc(N)[n+]1[O-] [Minoxidil]	146 ± 16.6%	72 ± 2.6% of untreated control	96.3 ± 3.2% of untreated control	–	–
Oc1ccc(-c2nc(-c3ccncc3)c(-c3ccc(F)cc3)[nH]2)cc1 [SB202190]	25.9 ± 7.4%	–	74.3 ± 5.2% of untreated control	44 ± 7.9% of untreated control	–
C[C@@H]1C[C@@H]([C@H](O)CC2CC(=O)NC(=O)C2)C(=O)[C@@H](C)C1 [Cycloheximide]	0%	24 ± 3.5% of untreated control	–	–	Vero Viability [2, 4]: 37.3 ± 6.2% of untreated control
Oc1ccc(/C=C/c2cc(O)cc(O)c2)cc1 [Resveratrol]	155 ± 62%	81 ± 7.5% of untreated control	87.3 ± 2.3% of untreated control	–	–
Cc1ccc(S(=O)(=O)NC(=O)NN2CCCCCC2)cc1 [Tolazamide]	120 ± 33.7%	113 ± 7.3% of untreated control	99.0 ± 1.5% of untreated control	–	–
CO/C1=C\C(C)=C\[C@@H](C)[C@@H](O)[C@@H](C)C/C(C)=C/C=C/[C@H](OC)[C@@H]([C@@H](C)[C@@H](O)[C@H](C)[C@@]2(O)C[C@@H](O)[C@H](C)[C@@H](C(C)C)O2)OC1=O [Bafilomycin A1]	0%	36 ± 6.1% of untreated control	–	–	Vero Viability [2, 4]: 55.7 ± 9.5% of untreated control
Clc1cccc(Cl)c1N=C1NCCN1 [Clonidine·HCl]	95.9 ± 53.4%	–	97.7 ± 2.6% of untreated control	69 ± 5.4% of untreated control	–
CCCCC[C@H](O)CC(=O)CCc1ccc(O)c(OC)c1 [Compound 6-Gingerol, 6-Gingerol]	109 ± 9.3%	55 ± 11% of untreated control	100.0 ± 2.5% of untreated control	–	–
C1COC(NC(C2CC2)C2CC2)=N1 [Rilmenidine]	161 ± 58.1%	–	97.0 ± 2% of untreated control	79 ± 8.3% of untreated control	–
CC1=CC(=O)c2c(O)cccc2C1=O [Plumbagin]	21.4 ± 17.5%	–	2.0 ± 0% of untreated control	49 ± 1.5% of untreated control	–
O=c1cc(N2CCOCC2)oc2c(-c3ccccc3)cccc12 [LY294002]	548 ± 221%	97 ± 17.2% of untreated control	–	–	Vero Viability [2, 4]: 56.0 ± 6% of untreated control
Cn1nnc2c(C(N)=O)ncn2c1=O [Temozolomide]	219 ± 49.8%	–	104.7 ± 1.9% of untreated control	113 ± 9.2% of untreated control	–
C=C(C)[C@H]1Cc2c(ccc3c2O[C@@H]2COc4cc(OC)c(OC)cc4[C@@H]2C3=O)O1 [Rotenone]	0.1 ± 0.1%	17 ± 5.8% of untreated control	–	–	Vero Viability [2, 4]: 61.3 ± 7.7% of untreated control
CC(C)Cn1cnc2c(N)nc3ccccc3c21 [Imiquimod]	72.5 ± 18.4%	37 ± 8.1% of untreated control	–	–	Vero Viability [2, 4]: 91.3 ± 1.2% of untreated control
CCCC(CCC)C(=O)O [Sodium Valproate]	111 ± 20.7%	111 ± 6.2% of untreated control	92.7 ± 1.2% of untreated control	–	–
CN[C@@H]1C[C@H]2O[C@@](C)([C@@H]1OC)n1c3ccccc3c3c4c(c5c6ccccc6n2c5c31)C(=O)NC4 [Staurosporine]	0%	16 ± 5.3% of untreated control	–	–	Vero Viability [2, 4]: 14.0 ± 1.5% of untreated control
